Read-outs that look alike come from different tables or passages of the source.
Assays:
[1] = tested on: rats injected intrathecally with dynorphin A; experiment: Dynorphin A-induced paralysis in rats, neurological score; format: in vivo, rat; settings: n = 9, 5 μmoles DHL in DMSO intrathecally
Procedure: Rats were injected with […] of dynorphin A in combination with DMSO (vehicle only) or dynorphin A (Dny) with 5 μmoles of dihydrolipoate in DMSO. The DMSO (control) and the DMSO with dihydrolipoate (DHL/DMSO) were administered as 2 hour pretreatment before administration of the dynorphin A and as cotreatment with dynorphin A. All rats were flaccidly paralyzed 10 minutes following dynorphin a injections. All injections were administered intrathecally.

[2] = tested on: ischemia-reperfusion injury; settings: rat; cited from earlier work
[3] = tested on: ischemia-reperfusion injury; settings: gerbil; cited from earlier work
[4] = tested on: NMDA and malonic acid lesions of striatum; settings: rats; cited from earlier work
[5] = man, cited from earlier work
[6] = 2 hrs, pretreatment and cotreatment with dynorphin A
[7] = 24 hrs, pretreatment and cotreatment with dynorphin A

Row | Structure (SMILES) | Number of animals with neurological score 4 (normal) ([1]; 2 hrs, 2 hour pretreatment and cotreatment with 20 μmoles dynorphin A, 4 normal, 0 flaccid paralysis) | Number of animals with neurological score 0 (flaccid paralysis) [1, 6] | Number of animals with neurological score 1 [1, 6] | Number of animals with neurological score 2 [1, 6] | Number of animals with neurological score 3 [1, 6] | Number of animals with neurological score 1 [1, 7] | Number of animals with neurological score 3 [1, 7] | Number of animals with neurological score 4 (normal) [1, 7] | Neuroprotection against ischemia-reperfusion injury [2] | Neuroprotection against ischemia-reperfusion injury [3] | Effect against NMDA lesions of striatum [4] | Effect against malonic acid lesions of striatum [4] | Clinical safety / tolerability [5] | Clinical safety / tolerability ([5]; listed as αLA)
1 | O=C(O)CCCC[C@@H](S)CCS (racemic) [DHL, dihydrolipoic acid] | 2 | 1 | 1 | 2 | 3 | 2 | 3 | 4 | – | – | – | – | – | –
2 | O=C(O)CCCCC1CCSS1 (stereo not drawn) [Alpha lipoic acid] | – | – | – | – | – | – | – | – | neuroprotective | neuroprotective | effective | effective | clinically safe | well tolerated
